Columns and labels:
[1] = tested on: AN01, CFTR and ENaC mRNA; experiment: Real-time PCR of AN01, CFTR and ENaC mRNA in IL-4-treated HNE cells; format: cell-based, human; settings: long-term treatment (F10: 120 hours)
Protocol: The total messenger RNA (mRNA) was extracted using TRIzol reagent (Invitrogen, Carlsbad, CA, USA), and was reverse-transcribed using a random hexamer primer, an oligo(dT) primer and SuperScript® III reverse transcriptase (Invitrogen). Quantitative real-time PCR was performed using StepOnePlus Real-Time PCR system (Applied Biosystems, Foster City, CA, USA) and Thunderbird SYBR qPCR mix (Tokyobo, Osaka, Japan). Thermal cycling conditions included the initial stage at 95° C. for 5 minutes, and subsequent 40 cycles at 95° C. for 10 seconds, at 55° C. for 20 seconds and at 72° C. for […].

[2] = tested on: OVA-sensitized and challenged mice; experiment: OVA-induced allergic asthma mouse model; format: in vivo; settings: for OVA-induced airway sensitivity / airway resistance: pretreatment, F56 10 mg/kg i.p. 12 hours before OVA challenge, methacholine
Protocol: (A) Protocol of induction of allergic airway inflammation solution after allergen antigen challenge in a wild-type mouse and time course. F56 (10 mg/kg three times/day) was applied after tertiary OVA challenge. (B) Airway reactivity measured by whole body plethysmography in an OVA-induced asthma model. Penh was measured in response to an increased dose of methacholine (mean±S.E., n=4). (C) Representative PAS staining of airway tissue. Size bar, 100 μm. (D) Summary of PAS positive cells (mean±S.E., n=4). * P<0.05.
Experiments were performed using 8-week-old BALB/c mice. The experimental protocol was approved by the Animal Ethics Committee of Yonsei University. Mice were housed and maintained in an animal facility under standard laboratory conditions [12/12 hours light/dark cycle, controlled temperature (21±2° C.) and humidity (55±5%) and access to any food and water]. All the experiments were performed according to the guidelines of Yonsei University Animal Research Committee. Mice were divided to 3 groups, vehicle group (vehicle-treated PBS-sensitized and challenged mice), OVA group (vehicle-treated OVA-sensitized and challenged mice) and OVA+F56 group (F56-treated OVA-sensitized and challenged mice). Age and sex-matched 8-week-old mice were sensitized by i.p. injection of OVA (Sigma-Aldrich) on Days 0 and 14. The sensitization emulsion was composed of 50 μg OVA and 2 mg aluminum potassium sulfate in 200 μL saline solution. On Days 21, 22 and 23, sensitized mice were lightly anesthetized by isoflurane inhalation and challenged with 100 μg OVA in 30 μL saline solution administered intranasally. The control mice were treated in the same manner as PBS. F56 (10 mg/kg) was administered by i.p injection 12 hours before i.n. OVA challenge, respectively.
The airway response for methacol (MCh) 24 hours after the last OVA exposure was measured using FlexiVent system (Scireq, Montreal, QC, Canada). Mice were anesthetized by intraperitoneal injection of the mixture of Zoletil (30 mg/kg; Virbac Laboratories, Carros, France) and Rompun (10 mg/kg; Bayer, Leverkusen, Germany), and then tracheostomy was performed to connect to FlexiVent. The base line airway resistance was measured after spraying saline solution for 10 seconds using Aeroneb ultrasonic nebulizer (SCIREQ). After measuring the base line, the mice were exposed to nebulized methacholine at an increased concentration (0, 1.56, 3.13, 6.25, 12.5 and 25 mg/mL). In addition, using whole body plethysmography (Buxco, Miami, FL, USA), the bronchial airway responsibility was measured. As a major index of the airway responsibility, enhanced pause (Penh) was used. Under the base line condition, Penh was measured for 2 minutes. Then, the mice were exposed to inhalation of PBS or MCh (25 mg/mL) for 2 minutes. The Penh result was expressed as an absolute value.
After evaluation of the airway responsiveness, BAL was performed. The cells were pelleted by centrifugation and resuspended in PBS to obtain the number of cells. Cytospin was prepared with a cell centrifuge (Shandon Cytospin 4 cell centrifuge; Thermo Scientific, MA, USA, USA) and stained with Diff-Quik Stain Set (Dade Behring, USA, DE, USA) to evaluate inflammation.
For evaluation of airway inflammation, left lung was fixed in 4% paraformaldehyde overnight and embedded in paraffin. A histological slide was prepared from 5-μm section, and stained with hematoxylin and eosin (H&E). The inflammation score showing the severity of bronchial inflammation was evaluated by 3 blind observers using a method reported conventionally. To evaluate goblet cell hyperplasia, the section was stained with periodic acid-Schiff (PAS) using PAS staining kit (Sigma-Aldrich), according to the manufacturer's protocol. The nasal cavity mucous membrane and HNE cells collected on the transwell were softly washed with PBS and fixed with 4% paraformaldehyde. […]

[3] = tested on: AN01; experiment: Protein expression measurement in IL-4-treated HNE cells, AN01; format: cell-based, human; settings: long-term treatment
Protocol: CHO-K1 and HNE cells were lysed with a cytolytic buffer (50 mM Tris-HCl, pH 7.4, 1% Nonidet P-40, 0.25% sodium deoxycholate, 150 mM NaCl, 1 mM EDTA, 1 mM Na3VO4, and protease inhibiting mixture). The total cell lysates were under centrifugation at 15,000×g for 10 minutes at 4° C. to remove cellular debris and the same amount (50 μg protein or 5 μg protein/lane) of supernatant protein was isolated on 4-12% Tris-glycine precast gel (KOMA BIOTECH, Seoul, Korea) and transferred to PVDF membrane (Millipore, Billerica, MA, USA). The membrane was blocked with 5% fat-free skim milk in TBS containing 0.1% Tween 20 (TBST) or 5% bovine serum albumin in TBS at a room temperature for 1 hour. Then, the membrane was cultured at 4° C. overnight with a primary antibody against pendrin (sc-50346; Santa Cruz Biotechnology, Santa Cruz, CA, USA), NF-κB p65 (4764S; Cell Signaling Technology, Danvers, MA, USA), p-NF-κB p65 (3033S; Cell Signaling Technology), IkBα (9242S; Cell Signaling Technology), p-IkBα (9141S; Cell Signaling Technology), β-actin (sc-47778; Santa Cruz Biotechnology), or AN01 (ab64085; Abeam). After washing with 0.05% Tween 20 (TBST) in PBS, the blot was additionally cultured with a secondary antibody (Cell Signaling Technology, Danvers, MA) at a room temperature for 60 minutes. […]

[4] = established model of allergic asthma, 10 mg/kg three times/day after tertiary OVA challenge

Compound | mRNA expression of AN01, CFTR and ENaC [1] | OVA-induced airway sensitivity / airway resistance [2] | IL-4-induced upregulation of AN01 [3] | serum level of OVA-specific IgG ([2]; OVA-challenged mice) | goblet cells, inflammation infiltration and epithelial thickness in central airway (histology) ([2]; OVA-challenged mice, 10 mg/kg i.p.) | average inflammation score ([2]; OVA-challenged mice, versus non-treated group) | number of eosinophils and neutrophils in BALF ([2]; OVA-sensitized mice, 10 mg/kg i.p.) | OVA-induced airway sensitivity [2, 4] | PAS positive cells in the airway epithelium [2, 4]
CC(C)(C)c1ccc(C2=NC(=Cc3ccc[nH]3)C(=O)O2)cc1 [F10, 4-((1H-pyrrol-2-yl)methylene)-2-(4-(tert-butyl)phenyl)oxazol-5 (4H)-one] | did not show any effect | reduced the airway resistance | – | – | – | – | – | – | –
CC(C)(C)c1ccc(C2=NC(=Cc3cccs3)C(=O)O2)cc1 [F56, 2-(4-(tert-butyl)phenyl)-4-(thiophen-2-ylmethylene)oxazol-5(4H)-one] | did not change | significantly weakened | not affected | not changed | weekended | significantly lower | reduced | significantly reduced | significantly reduced
